Measured values as given in patent US20090238852A1, “METHODS FOR CONTROLLING INTRACELLULAR CALCIUM LEVELS ASSOCIATED WITH AN ISCHEMIC EVENT” (University of Utah Research Foundation, priority 2008, published 2009).

Key:
[1] = tested on: rabbit ventricular myocytes; assay: Intracellular calcium [Ca^++]i in ventricular myocytes during paced metabolic ischemia (PMI), Fluo-3 flow cytometry; assay type: cell-based; conditions: n = 7
Text: Consequently, it prevents intracellular sodium overload and subsequent reverse mode operation of the sodium-calcium exchanger. The effect of 2-O, 3-O desulfated heparin on accumulation of intracellular Ca^++ during ischemia was studied in an adult rabbit ventricular myocyte model previously reported (Boston D R, et al. J Pharmacol Exp Ther 285:716-723, 1998; Li F, et al. J Mol Cell Cardiol 33:2145-2155, 2001). Isolated cardiomyocytes have been validated as reliable models of ischemia (Diaz, R J, Wilson G J. Cardiovasc Res 70:286-296, 2006).
To produce the model, hearts are removed from albino rabbits (2-3 kg) anesthetized with sodium pentobarbital (65 mg/kg IV). The heart was immediately attached to an aorta cannula. Continuous perfusion of the coronary arteries at 37° C. by a pump (Masterflex, Cole-Parmer Instrument Co., Chicago, Ill.) was initiated at a perfusion pressure of 60 mm Hg. The heart was first perfused with nominally Ca^++-free modified Krebs-Ringer bicarbonate buffered solution (MKRBB, pH 7.40, containing in mmol/L: NaCl 126, KCl 4.4, […], MgCl2 1.0, HEPES 24, probenecid 0.5 and glucose 5) for 10 min, immediately followed by 15-25 min of recirculating perfusion with the same solutions containing 0.3 mg/ml collagenase (Type 2, Worthington Biochemical, Freehold, N.J.), 0.4 mg/mL hyaluronidase (Type-S, Sigma-Aldrich, St. Louis, Mo.) and 50 μmol/L CaCl2. The heart was then detached from the cannula, and the left ventricle was minced and transferred to a 50 mL conical tube with the same solution containing 0.24 mg/mL collagenase, 0.02 mg/mL trypsin and 50 μmol/L Ca^++ for a second digestion. The minced tissue was continuously agitated by gassing the solution with 5% CO2 and 95% O2 to help release isolated myocytes. The resulting supernatant was transferred to another conical tube with the same volume of the same solution containing 0.03 mg/mL of trypsin inhibitor (Sigma-Aldrich). The cell suspension was centrifuged at 5×g for 5 minutes. The supernatant was discarded and cells were resuspended in solution with a higher Ca^++ concentration (200 μmol/L) and incubated in a CO2 incubator (5% CO2, 28° C.) to settle down cells by gravity for 10 min. The same procedure was repeated twice to bring up the Ca^++ concentration slowly (500, then 1000 μmol/L). Calcium step-up solutions were made from MKRBB with 2% albumin, 50 μmol/L CaCl2 mixed with the appropriate amount of minimum essential medium (MEM, Gibco Laboratories, Grand Island, N.Y.). At the end of isolation, cells were filtered with a […] to avoid cell clumping during flow cytometry studies. The yield of rod-shaped viable myocytes averaged 50%. Cells were used for experiments within 4 hours after dissociation.
In these studies, intracellular calcium concentration [Ca^++]i was measured by flow cytometry. Measurement of isolated mouse and rabbit ventricular myocyte [Ca^2+]i and [Na^+]i by flow cytometry has been described (Zhang et al., J. Cardiovasc. Pharmacol. 51: 443-449 (2008); Li et al., J. Mol. Cell. Cardiol. 33: 2145-2155 (2001)). [Ca^++]i was measured with the Ca^++ sensitive fluorescent probe, Fluo 3-AM (Molecular Probes, Eugene, Oreg.), using a FACScan (Becton-Dickinson, MA). The cells were exposed to 4 μmol/L Fluo-3 AM for 30 min at 37° C. The cells were then separated into aliquots. After 40 min of wash, the cells were exposed to paced metabolic ischemia (MI) for 45 min at 37° C. Metabolic ischemia was accomplished by incubating cells in a glucose-free MKRBB solution (pH 7.40) containing 2 mmol/L sodium cyanide (NaCN) to impair mitochondrial and glycolytic generation of ATP. To reproduce the situation in the beating ischemic heart, during the period of metabolic ischemia, myocytes were placed in a 5-well chamber with equal volumes of myocyte suspensions from the same heart dissociation placed in each well. The chamber was water bathed to maintain temperature at 37° C. and bubbled with 5% CO2 in air to keep myocytes in suspension. […]

NCE = conditions: cited from earlier work
[2] = tested on: rabbit ventricular myocytes; assay: [Ca^++]i during paced aerobic metabolism (PH) with the Na^+ channel opener ATX; assay type: cell-based; conditions: PH + ATX 20 nmol/L; n = 7; PH alone 406.8 ± 15.9
Description: (§1) In these studies, intracellular calcium concentration [Ca^++]i was measured by flow cytometry. Measurement of isolated mouse and rabbit ventricular myocyte [Ca^2+]i and [Na^+]i by flow cytometry has been described (Zhang et al., J. Cardiovasc. Pharmacol. 51: 443-449 (2008); Li et al., J. Mol. Cell. Cardiol. 33: 2145-2155 (2001)). [Ca^++]i was measured with the Ca^++ sensitive fluorescent probe, Fluo 3-AM (Molecular Probes, Eugene, Oreg.), using a FACScan (Becton-Dickinson, MA). The cells were exposed to 4 μmol/L Fluo-3 AM for 30 min at 37° C. The cells were then separated into aliquots. After 40 min of wash, the cells were exposed to paced metabolic ischemia (MI) for 45 min at 37° C. Metabolic ischemia was accomplished by incubating cells in a glucose-free MKRBB solution (pH 7.40) containing 2 mmol/L sodium cyanide (NaCN) to impair mitochondrial and glycolytic generation of ATP. To reproduce the situation in the beating ischemic heart, during the period of metabolic ischemia, myocytes were placed in a 5-well chamber with equal volumes of myocyte suspensions from the same heart dissociation placed in each well. The chamber was water bathed to maintain temperature at 37° C. and bubbled with 5% CO2 in air to keep myocytes in suspension. […] Approximately 2×10^3 myocytes were analyzed to calculate average emission fluorescence intensity in each sample. […] Only those cells with low fluorescence intensity at 670 nm (PI-negative cells or viable cells) were included in the comparative analysis of [Ca^++]i. The sample [Ca^2+]i values were calculated by Mn^2+ quenching (Sugishita et al, 2001) and [Na^+]i values by comparison with a standard curve of varied [Na^+]i versus Na Green fluorescence. […] Results were expressed as means±SEM. […]
To further examine the role of ODSH as a Na^+ inhibitor, additional experiments were performed in which the Na^+ channel opener amenone toxin II (ATX) was added to medium in a final concentration of 20 nmol/L to open the cardiac myocyte membrane Na^+ channel. […] Intracellular calcium concentration [Ca^++]i was monitored as earlier. […]

[3] = tested on: rabbit ventricular myocytes; assay: [Na^+]i in paced myocytes exposed to ATX, no metabolic inhibition; assay type: cell-based; conditions: ATX 10 nM, HEPES + pacing; FIG. 9; n = 6
Description: as §1, with “After 40 min of wash, the cells were exposed to paced metabolic ischemia (MI) for 45 min at 37° C.” left out, “suspension. Each well was fitted with platinum sheet electrodes on both sides for field stimulation. One chamber was constructed with a glass coverslip bottom so that myocytes can be observed microscopically to assess capture threshold. Placing electrodes were connected in series to a constant current pulse generator that delivers a 0.2 ampere pulse at 0.5 Hz.” for “suspension.”

CS(=O)(=O)O.N=C(N)SCCc1ccc(OCc2ccc([N+](=O)[O-])cc2)cc1 [KBR, 2-[2-[4-(4-nitrobenzyloxy)phenyl]ethyl]isothiourea metanesulfonate, reference compound]
[Ca^++]i ([1]; Table 6: PMI + KBR 10 μmol/L, PMI alone 985.5 ± 42.7): 666.5 ± 50.7 nM
selectivity for reserve mode versus forward mode (NCE; Iwamoto 1996): 50 fold

CCOc1ccc(Oc2ccc(OCc3cc(F)ccc3F)cc2)c(N)c1 [SEA0400, 2-[4-[(2,5-difluorophenyl)methoxy]-phenoxy]-5-ethoxyaniline]
selectivity for the reverse versus forward mode of the NCE (NCE; Matsuda 2001): lacks selectivity for the reverse versus forward mode of the NCE

COc1ccccc1OCC(O)CN1CCN(CC(=O)Nc2c(C)cccc2C)CC1 (stereo not drawn) [ranolazine, reference compound]
effect on [Ca^2+]i during P-MI ([1]; each alone: ODSH 100 μg/ml, ranolazine 10 μM, FIG. 8): reduced [Ca^2+]i to a similar degree

ATX: Na^+ channel opener; selective activator of INa,L [reference compound]
[Ca^++]i [2]: 529.1 ± 29.3 nM
effect on [Na^+]i in paced myocytes [3]: substantial increase in [Na^+]i
